Laboratory results taken from patent US6632621B1, “G protein-coupled receptor-like receptors and modulators thereof” (priority 1999, dated 2003).
Like-named read-outs stand apart in the source and are kept apart here. Where no end group is shown, it is not given here. [ ]: non-standard residue; d: D form. Tyr(3-I) = N[C@@H](Cc1ccc(O)c(I)c1)C(=O)O

B1: 3-Iodo-Y-PGVLRF-NH2 (peptide)
peptide: [Tyr(3-I)]PGVLRF-NH2
modifications: N-terminus assumed
SMILES: CC(C)C[C@H](NC(=O)[C@@H](NC(=O)CNC(=O)[C@@H]1CCCN1C(=O)[C@@H](N)Cc1ccc(O)c(I)c1)C(C)C)C(=O)N[C@@H](CCCNC(=N)N)C(=O)N[C@@H](Cc1ccccc1)C(N)=O
notes: synthetic

Columns and labels:
CEGPCR5 = molecular target: T1, CEGPCR5 (Caenorhabditis elegans, UniProt Q18179); assay: [35S]GTPγS binding assay, CEGPCR5 expressed in CHO cells; format: biochemical, C. elegans
T1 sequence (Q18179 1-402): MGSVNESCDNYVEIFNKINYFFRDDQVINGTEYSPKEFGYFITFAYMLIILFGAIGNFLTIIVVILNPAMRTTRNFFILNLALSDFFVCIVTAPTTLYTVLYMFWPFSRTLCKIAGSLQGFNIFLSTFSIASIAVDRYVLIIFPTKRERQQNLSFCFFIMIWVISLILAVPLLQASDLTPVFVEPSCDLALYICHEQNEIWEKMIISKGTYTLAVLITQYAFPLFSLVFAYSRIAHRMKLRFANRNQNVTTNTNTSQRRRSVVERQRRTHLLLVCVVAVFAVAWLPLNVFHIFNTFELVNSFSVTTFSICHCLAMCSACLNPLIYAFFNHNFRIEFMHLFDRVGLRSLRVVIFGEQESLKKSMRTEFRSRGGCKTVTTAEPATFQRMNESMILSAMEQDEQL
Method: (§1) Recombinant pCR3.1 clones encoding invertebrate GPCR-like receptors were transformed into wild-type CHO-K1 cells and functional expression was achieved using a temperature-shift incubation protocol. The CHO-K1 cells were cultured at 37° C. in a humidified atmosphere of 5% CO2 in air in DMEM medium supplemented with 10% heat-inactivated fetal bovine serum (i.e., FBS), 10 μg/ml gentamicin, and 0.1 mM nonessential amino acids to give complete DMEM medium. Additionally, for incubations at temperatures lower than 37° C., the medium was fortified with 10 mM HEPES (pH 7.4). Cells were transfected with recombinant pCR3.1 clones containing GPCR-like receptor DNAs, using LipofectAMINE PLUS™, essentially according to the manufacturer's instructions. […] In separate plastic tubes, PLUS (20 μl/plate; Life Technologies) was added to 0.75 ml/plate of recombinant plasmid DNA in OptiMEM (5 μg/plate; Gibco/BRL—Life Technologies), mixed and incubated at room temperature for 15 minutes. Separately, LipofectAMINE (30 μl/plate) was mixed with 0.75 ml OptiMEM and added to the pre-complexed DNA/PLUS mixture and incubated at room temperature for 15 minutes. The culture medium was then replaced with serum-free transfection medium (DMEM, 5 ml/plate). The DNA-PLUS-LipofectAMINE complex was then added to the plates (1.5 ml/plate) and mixed gently into the medium, followed by a 3 hour incubation at 37° C. in 5% CO2. At this time, the medium was supplemented with complete DMEM medium containing 20% FBS (6.5 ml/plate) and incubation was continued at 37° C. in 5% CO2. After a total of 24 hours at 37° C. in 5% CO2, the medium was replaced with complete DMEM medium fortified with 10 mM HEPES (10 ml/plate) and the cells were moved to an incubator maintained at 28-30° C. in a humidified atmosphere of 5% CO2 in air. The incubation continued for an additional 24 hours, typically at the lower temperature indicated above. A plasmid encoding Green Fluorescent Protein (i.e., GFP, 4 μg/plate) was used for transient GFP expression in CHO-K1 cells to estimate the transfection yields under the same conditions as used for GPCR-like receptor polynucleotides.
(§2) To assess expression, membranes were prepared from transfected CHO-K1 cells. Transfected cells were washed once with ice-cold Dulbecco's phosphate-buffered saline (i.e., PBS), 5 ml per 10 cm plate, and the cells were scraped into 5 ml of the same buffer. Cell suspensions from multiple plates were combined and centrifuged at 500×g for 10 minutes at 4° C. The cell pellet was reconstituted in ice-cold TEE (25 mM Tris, pH 7.4, 5 mM EGTA, 5 mM EDTA). Convenient aliquots were snap-frozen in liquid nitrogen and stored at −70° C. After thawing, the cells were homogenized and centrifuged at 500×g for 5 minutes at 4° C. to pellet nuclei and unbroken cells. Tile supernatant was centrifuged at 47,000×g for 30 minutes at 4° C. The membrane pellet was washed once with TEE, resuspended in 20 mM HEPES, pH 7.4, 100 mM NaCl, 10 mM MgCl2, 1 mM EDTA (assay buffer), distributed into aliquots of 0.5-1.0 ml, and frozen in liquid nitrogen. Membrane aliquots were stored at −70° C. Membrane protein concentration was determined using the BCA Protein Assay Reagent from Pierce (Rockford, Ill.), with bovine serum albumin (i.e., BSA) as a standard.
(§3) Aliquots of cell membranes prepared as described above and stored at −70° C. were thawed, homogenized, and diluted into buffer containing 20 mM HEPES, pH 7.4, 10 mM MgCl2, 1 mM EDTA, and 100 mM NaCl at a concentration of 10-50 μg/ml. Reaction mixtures were prepared in 96-well polypropylene plate, Nunc. Twenty microliters of a 10× putative modulator compound (including but not limited to potential peptide ligands) solution or a water control (20 μl), 18.2 µM GDP (0.11 ml, 10 μM final concentration), and a membrane preparation were mixed and placed on ice. The modulator/ligand-GDP-membrane mixtures were incubated for 20 minutes at room temperature on a shaking platform and then placed on ice.

CEGPCR16 receptor = molecular target: T2, CEGPCR16 receptor (Caenorhabditis elegans, UniProt Q9XXU4); assay: [35S]GTPγS binding assay, CEGPCR16 expressed in CHO cells; format: biochemical, C. elegans
T2 sequence (Q9XXU4 1-365): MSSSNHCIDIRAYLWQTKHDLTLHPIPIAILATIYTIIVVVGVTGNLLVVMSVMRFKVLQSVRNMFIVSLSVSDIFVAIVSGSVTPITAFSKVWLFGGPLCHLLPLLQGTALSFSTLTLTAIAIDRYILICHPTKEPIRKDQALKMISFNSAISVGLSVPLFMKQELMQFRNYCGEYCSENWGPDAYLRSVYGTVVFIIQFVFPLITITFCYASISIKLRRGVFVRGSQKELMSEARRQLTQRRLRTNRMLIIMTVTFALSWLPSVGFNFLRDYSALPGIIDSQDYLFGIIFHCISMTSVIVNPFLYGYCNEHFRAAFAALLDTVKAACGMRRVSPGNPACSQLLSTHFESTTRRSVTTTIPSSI
Method: as §1, §2, §3

CEGPCR12h receptor = molecular target: T3, CEGPCR12h receptor (Caenorhabditis elegans, UniProt Q20275); assay: [35S]GTPγS binding assay, CEGPCR12h expressed in CHO cells; format: biochemical, C. elegans; conditions: Table 11; peptides tested at 5 μM
T3 sequence (Q20275 1-402): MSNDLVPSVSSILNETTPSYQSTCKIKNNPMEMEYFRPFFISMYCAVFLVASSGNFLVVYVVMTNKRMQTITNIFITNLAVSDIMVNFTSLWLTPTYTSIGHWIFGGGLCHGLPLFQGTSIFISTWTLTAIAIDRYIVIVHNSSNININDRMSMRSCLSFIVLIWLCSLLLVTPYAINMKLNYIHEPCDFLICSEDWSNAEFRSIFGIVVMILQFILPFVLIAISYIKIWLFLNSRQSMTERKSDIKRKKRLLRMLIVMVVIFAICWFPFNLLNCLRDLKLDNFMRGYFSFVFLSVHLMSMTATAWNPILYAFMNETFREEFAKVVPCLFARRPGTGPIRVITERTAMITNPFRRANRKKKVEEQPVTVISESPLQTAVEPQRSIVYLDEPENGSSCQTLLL
Method: as §1, §2, §3

CEGPCR4 = molecular target: T4, CEGPCR4 (C. elegans); assay: competition binding assay, CEGPCR4/CHO membranes; IC50 range printed once for block r39-r54
T4 construct: Expressed in CHO cells; also called CEGPCR4 receptor; CEGPCR4/CHO membranes
T4 chain: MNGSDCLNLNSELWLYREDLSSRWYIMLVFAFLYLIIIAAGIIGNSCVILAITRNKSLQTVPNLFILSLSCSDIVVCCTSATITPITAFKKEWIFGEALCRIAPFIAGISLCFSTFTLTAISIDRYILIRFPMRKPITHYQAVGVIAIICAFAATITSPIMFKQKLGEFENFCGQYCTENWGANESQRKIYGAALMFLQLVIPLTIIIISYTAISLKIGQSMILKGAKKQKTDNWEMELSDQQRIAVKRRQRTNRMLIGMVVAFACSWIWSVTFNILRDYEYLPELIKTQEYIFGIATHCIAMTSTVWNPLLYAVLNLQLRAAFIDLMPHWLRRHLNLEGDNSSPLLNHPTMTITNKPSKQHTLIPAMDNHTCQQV

[1] = Table 10, one range for the group of peptides, read-out: EC50 range
[2] = EC50 range, Table 9, one range for the group of peptides

Molecule	EC50 (CEGPCR16 receptor; [1])	binding result (CEGPCR4)	also measured
AGPRFIRF-NH2 [AGPRFIRF-NH2]			EC50 (CEGPCR5): 1000 to 8000 nM
EIPGVLRF-NH2 [EIPGVLRF-NH2]	700 to 4600 nM		
ARGPQLRLRF-NH2 [ARGPQLRLRF-NH2]			EC50 (CEGPCR5; [2]): 1000 to 8000 nM
SDRNFLRF-NH2 [SDRNFLRF-NH2]			EC50 (CEGPCR5; [2]): 80 to 800 nM
SVPGVLRF-NH2 [SVPGVLRF-NH2]	60 to 300 nM		EC50 (CEGPCR16 receptor; read-out: EC50): 64 nM; EC50 (CEGPCR5): 80 to 800 nM; activity at single concentration (CEGPCR12h receptor): active at
DVPGVLRF-NH2 [DVPGVLRF-NH2]	700 to 4600 nM		activity at single concentration (CEGPCR12h receptor): active at
GMPGVLRF-NH2 [GMPGVLRF-NH2]	60 to 300 nM		EC50 (CEGPCR5): 1000 to 8000 nM; activity at single concentration (CEGPCR12h receptor): active at
EIVFHQISPIFFRF-NH2 [EIVFHQISPIFFRF-NH2]			EC50 (CEGPCR5): 1000 to 8000 nM
EDGNAPFGTMRF-NH2 [EDGNAPFGTMRF-NH2]	60 to 300 nM		
SADDSAPFGTMRF-NH2 [SADDSAPFGTMRF-NH2]	60 to 300 nM		
DFDGAMPGVLRF-NH2 [DFDGAMPGVLRF-NH2]	700 to 4600 nM		
Ac-GVLRF-NH2 (synthetic) [Ac-GVLRF-NH2]		binds	
VPGVLRF-NH2 (synthetic) [VPGVLRF-NH2]		binds	
B1		binds	
YPGVLRF-NH2 (synthetic) [Y-PGVLRF-NH2]		binds	
YGVLRF-NH2 (synthetic) [Y-GVLRF-NH2]		binds	
PGVLRF-NH2 (synthetic) [PGVLRF-NH2]		binds	
GVLRF-NH2 (synthetic) [GVLRF-NH2]		binds	
Ac-VPGVLRF-NH2 (synthetic) [Ac-VPGVLRF-NH2]		binds	
